Calls of active or inactive are those of the source. The calls are words filed in the database; no cut-off is given here.
Tests used:
[1] = molecular target: Tyrosine-protein kinase ABL1 (Homo sapiens) (UniProt P00519); settings: Compound concentration 1000.0 nM
[2] = system: Epidermal growth factor receptor (Homo sapiens), P00533 [UNDEFINED MUTATION]; settings: Compound concentration 1000.0 nM
[3] = system: Epidermal growth factor receptor (Homo sapiens), P00533 [UNDEFINED MUTATION]; settings: Compound concentration 1000.0 nM; remark: listed apart in the source
[4] = molecular target: Glycogen synthase kinase-3 alpha (Homo sapiens) (UniProt P49840); settings: Compound concentration 1000.0 nM
Chain of Glycogen synthase kinase-3 alpha (Homo sapiens) (P49840 2-483 limits assumed): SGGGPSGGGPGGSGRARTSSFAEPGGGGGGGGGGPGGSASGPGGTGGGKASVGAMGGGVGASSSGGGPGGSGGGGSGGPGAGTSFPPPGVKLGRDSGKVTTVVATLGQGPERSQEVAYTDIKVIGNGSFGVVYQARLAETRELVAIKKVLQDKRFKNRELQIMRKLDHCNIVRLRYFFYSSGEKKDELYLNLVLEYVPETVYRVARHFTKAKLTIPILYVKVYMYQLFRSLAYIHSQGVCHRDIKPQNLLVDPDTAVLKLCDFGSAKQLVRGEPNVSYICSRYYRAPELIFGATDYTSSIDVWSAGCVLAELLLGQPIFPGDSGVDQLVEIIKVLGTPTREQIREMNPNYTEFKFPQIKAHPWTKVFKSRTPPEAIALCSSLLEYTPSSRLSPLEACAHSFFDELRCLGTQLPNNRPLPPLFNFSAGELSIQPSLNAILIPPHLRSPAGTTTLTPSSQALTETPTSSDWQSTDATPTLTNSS

[5] = molecular target: Insulin receptor-related protein (Homo sapiens) (UniProt P14616); settings: Compound concentration 1000.0 nM
Chain of Insulin receptor-related protein (Homo sapiens) (P14616 27-742 limits assumed): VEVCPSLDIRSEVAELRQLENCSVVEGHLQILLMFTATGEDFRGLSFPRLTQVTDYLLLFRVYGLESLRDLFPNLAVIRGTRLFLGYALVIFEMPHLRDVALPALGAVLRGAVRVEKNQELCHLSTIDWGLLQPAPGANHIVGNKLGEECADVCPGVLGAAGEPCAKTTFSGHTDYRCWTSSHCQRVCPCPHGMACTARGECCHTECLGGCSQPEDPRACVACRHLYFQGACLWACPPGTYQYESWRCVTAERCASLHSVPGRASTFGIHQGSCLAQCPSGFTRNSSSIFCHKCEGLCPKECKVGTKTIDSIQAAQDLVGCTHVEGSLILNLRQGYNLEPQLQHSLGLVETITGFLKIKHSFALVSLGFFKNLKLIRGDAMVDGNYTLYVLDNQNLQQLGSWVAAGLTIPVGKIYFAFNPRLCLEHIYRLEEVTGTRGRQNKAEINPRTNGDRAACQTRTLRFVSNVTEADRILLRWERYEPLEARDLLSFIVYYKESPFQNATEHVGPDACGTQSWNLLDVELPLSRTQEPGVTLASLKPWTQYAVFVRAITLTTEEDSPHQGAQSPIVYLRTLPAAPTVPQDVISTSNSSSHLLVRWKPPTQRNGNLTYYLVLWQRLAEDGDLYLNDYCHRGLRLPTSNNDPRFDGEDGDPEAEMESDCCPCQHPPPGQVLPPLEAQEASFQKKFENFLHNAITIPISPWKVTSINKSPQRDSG
Chain of Insulin receptor-related protein (Homo sapiens) (P14616 747-1297 limits assumed): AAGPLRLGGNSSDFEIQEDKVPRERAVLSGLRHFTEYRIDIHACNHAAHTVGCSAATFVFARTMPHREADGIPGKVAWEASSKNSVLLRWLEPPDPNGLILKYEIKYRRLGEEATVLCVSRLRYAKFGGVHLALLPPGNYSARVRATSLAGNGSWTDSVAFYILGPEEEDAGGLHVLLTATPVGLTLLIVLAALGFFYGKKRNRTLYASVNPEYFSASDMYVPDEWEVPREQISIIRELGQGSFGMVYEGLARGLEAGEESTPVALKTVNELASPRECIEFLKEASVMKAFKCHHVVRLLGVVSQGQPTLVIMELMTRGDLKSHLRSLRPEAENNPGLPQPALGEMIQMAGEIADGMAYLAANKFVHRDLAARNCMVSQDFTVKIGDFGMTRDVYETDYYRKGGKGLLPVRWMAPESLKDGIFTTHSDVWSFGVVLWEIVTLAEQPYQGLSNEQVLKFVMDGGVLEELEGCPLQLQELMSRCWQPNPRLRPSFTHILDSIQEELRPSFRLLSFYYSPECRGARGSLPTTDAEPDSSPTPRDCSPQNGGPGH

[6] = molecular target: Mitogen-activated protein kinase 9 (Homo sapiens) (UniProt P45984); settings: Compound concentration 1000.0 nM
Chain of Mitogen-activated protein kinase 9 (Homo sapiens) (P45984 whole entry, looked up): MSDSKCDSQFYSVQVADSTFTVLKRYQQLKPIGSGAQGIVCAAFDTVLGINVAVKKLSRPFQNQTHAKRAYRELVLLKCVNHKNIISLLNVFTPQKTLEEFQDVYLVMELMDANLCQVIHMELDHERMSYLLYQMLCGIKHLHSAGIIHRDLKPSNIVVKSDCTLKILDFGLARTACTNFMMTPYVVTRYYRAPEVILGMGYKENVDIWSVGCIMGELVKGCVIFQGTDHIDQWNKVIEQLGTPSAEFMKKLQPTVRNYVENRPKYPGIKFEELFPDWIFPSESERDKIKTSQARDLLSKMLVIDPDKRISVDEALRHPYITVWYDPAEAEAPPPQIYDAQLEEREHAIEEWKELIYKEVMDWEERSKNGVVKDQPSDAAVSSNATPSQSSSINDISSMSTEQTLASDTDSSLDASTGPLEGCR

[7] = molecular target: Tyrosine-protein kinase Lck (Homo sapiens) (UniProt P06239); settings: Compound concentration 1000.0 nM
[8] = molecular target: LIM domain kinase 1 (Homo sapiens) (UniProt P53667); settings: Compound concentration 1000.0 nM
[9] = molecular target: Microtubule-associated serine/threonine-protein kinase 1 (Homo sapiens) (UniProt Q9Y2H9); settings: Compound concentration 1000.0 nM
[10] = molecular target: Myosin light chain kinase family member 4 (Homo sapiens) (UniProt Q86YV6); settings: Compound concentration 1000.0 nM
Chain of Myosin light chain kinase family member 4 (Homo sapiens) (Q86YV6 whole entry): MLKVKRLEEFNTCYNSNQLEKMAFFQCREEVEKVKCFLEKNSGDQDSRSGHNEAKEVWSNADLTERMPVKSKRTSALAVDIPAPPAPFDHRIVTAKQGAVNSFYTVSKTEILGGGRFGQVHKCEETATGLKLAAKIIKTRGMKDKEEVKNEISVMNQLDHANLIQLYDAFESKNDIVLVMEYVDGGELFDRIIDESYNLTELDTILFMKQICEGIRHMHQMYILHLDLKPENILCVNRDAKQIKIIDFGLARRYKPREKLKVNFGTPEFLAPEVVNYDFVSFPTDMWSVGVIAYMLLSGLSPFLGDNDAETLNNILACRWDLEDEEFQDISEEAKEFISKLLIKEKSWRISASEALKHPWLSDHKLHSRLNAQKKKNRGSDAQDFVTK

[11] = molecular target: Serine/threonine-protein kinase PAK 5 (Homo sapiens) (UniProt Q9P286); settings: Compound concentration 1000.0 nM
[12] = molecular target: cGMP-dependent protein kinase 2 (Homo sapiens) (UniProt Q13237); settings: Compound concentration 1000.0 nM
[13] = molecular target: Ribosomal protein S6 kinase alpha-1 (Homo sapiens) (UniProt Q15418); settings: Compound concentration 1000.0 nM
[14] = molecular target: Dual specificity protein kinase TTK (Homo sapiens) (UniProt P33981); settings: Compound concentration 1000.0 nM
Chain of Dual specificity protein kinase TTK (Homo sapiens) (P33981 whole entry): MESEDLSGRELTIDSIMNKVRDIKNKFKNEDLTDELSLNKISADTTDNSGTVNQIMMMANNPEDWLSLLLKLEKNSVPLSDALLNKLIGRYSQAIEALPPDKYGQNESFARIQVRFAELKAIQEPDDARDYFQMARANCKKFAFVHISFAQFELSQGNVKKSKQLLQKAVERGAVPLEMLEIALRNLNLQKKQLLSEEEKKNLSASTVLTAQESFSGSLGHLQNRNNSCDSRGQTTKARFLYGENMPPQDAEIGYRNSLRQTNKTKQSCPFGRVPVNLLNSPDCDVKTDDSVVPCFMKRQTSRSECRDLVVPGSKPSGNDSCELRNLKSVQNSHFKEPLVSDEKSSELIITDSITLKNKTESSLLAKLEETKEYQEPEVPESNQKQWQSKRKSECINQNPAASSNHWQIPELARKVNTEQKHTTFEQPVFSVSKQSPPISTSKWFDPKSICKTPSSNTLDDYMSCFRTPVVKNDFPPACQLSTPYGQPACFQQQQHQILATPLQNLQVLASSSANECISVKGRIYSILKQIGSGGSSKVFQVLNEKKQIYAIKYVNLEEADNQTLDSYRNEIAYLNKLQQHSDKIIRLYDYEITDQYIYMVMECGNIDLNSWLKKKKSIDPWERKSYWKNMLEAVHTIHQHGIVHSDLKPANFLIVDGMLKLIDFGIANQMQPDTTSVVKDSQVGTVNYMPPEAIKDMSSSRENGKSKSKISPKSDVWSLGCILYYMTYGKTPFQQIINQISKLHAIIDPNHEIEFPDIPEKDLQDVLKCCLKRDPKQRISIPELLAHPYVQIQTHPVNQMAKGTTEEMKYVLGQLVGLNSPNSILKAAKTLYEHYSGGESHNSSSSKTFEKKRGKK

[15] = molecular target: Serine/threonine-protein kinase VRK2 (Homo sapiens) (UniProt Q86Y07); settings: Compound concentration 1000.0 nM
D(4) dopamine receptor = molecular target: T1, D(4) dopamine receptor (Homo sapiens, UniProt P21917); experiment: Radioligand assay using 3[H] A-369508
T1 sequence (P21917 whole entry): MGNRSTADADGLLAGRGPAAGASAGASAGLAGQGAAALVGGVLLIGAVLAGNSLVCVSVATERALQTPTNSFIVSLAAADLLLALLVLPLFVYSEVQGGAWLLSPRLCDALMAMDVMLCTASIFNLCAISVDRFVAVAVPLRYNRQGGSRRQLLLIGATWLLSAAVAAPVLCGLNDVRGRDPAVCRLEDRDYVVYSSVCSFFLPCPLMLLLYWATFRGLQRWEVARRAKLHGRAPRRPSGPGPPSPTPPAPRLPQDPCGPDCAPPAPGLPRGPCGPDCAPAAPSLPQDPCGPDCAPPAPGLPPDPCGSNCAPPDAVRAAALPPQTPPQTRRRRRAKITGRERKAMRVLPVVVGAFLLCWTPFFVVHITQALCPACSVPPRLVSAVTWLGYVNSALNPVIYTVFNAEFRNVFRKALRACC

[16] = molecular target: Gastrin/cholecystokinin type B receptor (Homo sapiens) (UniProt P32239); experiment: CCKB (CCK2) CEREP ligand profiling; settings: Compound concentration 10.0 uM
[17] = molecular target: Histamine H1 receptor (Homo sapiens) (UniProt P35367); experiment: H1 CEREP ligand profiling; settings: Compound concentration 10.0 uM
[18] = molecular target: Substance-K receptor (Homo sapiens) (UniProt P21452); experiment: NK2 CEREP ligand profiling; settings: Compound concentration 10.0 uM
[19] = molecular target: Neuromedin-K receptor (Homo sapiens) (UniProt P29371); experiment: NK3 CEREP ligand profiling; settings: Compound concentration 10.0 uM
[20] = molecular target: Mu-type opioid receptor (Homo sapiens) (UniProt P35372); experiment: mu CEREP ligand profiling; settings: Compound concentration 10.0 uM
[21] = molecular target: 5-hydroxytryptamine receptor 1A (Homo sapiens) (UniProt P08908); experiment: 5-HT1A CEREP ligand profiling; settings: Compound concentration 10.0 uM
[22] = molecular target: 5-hydroxytryptamine receptor 5A (Homo sapiens) (UniProt P47898); experiment: 5-HT5A CEREP ligand profiling; settings: Compound concentration 10.0 uM
Chain of 5-hydroxytryptamine receptor 5A (Homo sapiens) (P47898 whole entry): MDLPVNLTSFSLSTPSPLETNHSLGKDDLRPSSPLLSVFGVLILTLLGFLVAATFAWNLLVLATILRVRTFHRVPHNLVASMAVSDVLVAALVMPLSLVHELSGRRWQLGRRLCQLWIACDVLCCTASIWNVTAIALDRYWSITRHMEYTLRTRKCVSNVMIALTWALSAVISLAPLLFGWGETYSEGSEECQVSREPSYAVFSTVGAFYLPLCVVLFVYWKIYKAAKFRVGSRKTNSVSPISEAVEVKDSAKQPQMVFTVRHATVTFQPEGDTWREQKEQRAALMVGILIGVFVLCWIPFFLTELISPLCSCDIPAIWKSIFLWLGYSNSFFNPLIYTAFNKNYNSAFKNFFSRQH

[23] = molecular target: Sodium channel alpha subunit (Na+ channel) (Homo sapiens, UniProt P35498+P35499+Q01118+Q14524+Q15858+Q99250+Q9NY46+Q9UI33+Q9UQD0+Q9Y5Y9); experiment: Na+ channel CEREP ligand profiling; type: protein assay; settings: compound concentration 10 uM
[24] = molecular target: Adenosine receptor A1 (Homo sapiens) (UniProt P30542); settings: Compound concentration 10.0 uM
Description: A1 CEREP ligand profiling

[25] = molecular target: Type-1 angiotensin II receptor (Homo sapiens) (UniProt P30556); settings: Compound concentration 10.0 uM
Description: AT1 CEREP ligand profiling

[26] = molecular target: Cannabinoid receptor 2 (Homo sapiens) (UniProt P34972); settings: Compound concentration 10.0 uM
Description: CB2 CEREP ligand profiling

[27] = molecular target: Cholecystokinin receptor type A (Homo sapiens) (UniProt P32238); settings: Compound concentration 10.0 uM
Description: CCKA (CCK1) CEREP ligand profiling

[28] = molecular target: C-C chemokine receptor type 1 (Homo sapiens) (UniProt P32246); settings: Compound concentration 10.0 uM
Description: CCR1 CEREP ligand profiling

[29] = molecular target: Muscarinic acetylcholine receptor M3 (Homo sapiens) (UniProt P20309); settings: Compound concentration 10.0 uM
Description: M3 CEREP ligand profiling

[30] = molecular target: Muscarinic acetylcholine receptor M4 (Homo sapiens) (UniProt P08173); settings: Compound concentration 10.0 uM
Description: M4 CEREP ligand profiling

[31] = molecular target: Neuropeptide Y receptor type 2 (Homo sapiens) (UniProt P49146); settings: Compound concentration 10.0 uM
Description: Y2 CEREP ligand profiling

[32] = molecular target: Thromboxane A2 receptor (Homo sapiens) (UniProt P21731); settings: Compound concentration 10.0 uM
Description: TXA2/PGH2 CEREP ligand profiling

[33] = molecular target: 5-hydroxytryptamine receptor 6 (Homo sapiens) (UniProt P50406); settings: Compound concentration 10.0 uM
Description: 5-HT6 CEREP ligand profiling

[34] = molecular target: 5-hydroxytryptamine receptor 7 (Homo sapiens) (UniProt P34969); settings: Compound concentration 10.0 uM
Description: 5-HT7 CEREP ligand profiling

[35] = molecular target: Calcium-activated potassium channel (Homo sapiens) (UniProt Q92952+Q9UGI6+Q12791+O15554+Q9H2S1+A8MYU2); settings: Compound concentration 10.0 uM
Description: SK+Ca channel CEREP ligand profiling

[36] = molecular target: GABA-A receptor; anion channel (Homo sapiens) (UniProt P14867+P47870+P18507+P28472+P48169+Q99928+Q9UN88+P34903+O00591+O14764+Q8N1C3+P18505+P78334+P47869+P31644+Q16445); settings: Compound concentration 10.0 uM
Description: Cl- channel CEREP ligand profiling

[37] = molecular target: Melatonin receptor type 1A (Homo sapiens) (UniProt P48039); experiment: ML1 CEREP ligand profiling; settings: Compound concentration 10.0 uM

Chain of Epidermal growth factor receptor (Homo sapiens), P00533 [UNDEFINED MUTATION] (P00533 whole entry, looked up, change not shown): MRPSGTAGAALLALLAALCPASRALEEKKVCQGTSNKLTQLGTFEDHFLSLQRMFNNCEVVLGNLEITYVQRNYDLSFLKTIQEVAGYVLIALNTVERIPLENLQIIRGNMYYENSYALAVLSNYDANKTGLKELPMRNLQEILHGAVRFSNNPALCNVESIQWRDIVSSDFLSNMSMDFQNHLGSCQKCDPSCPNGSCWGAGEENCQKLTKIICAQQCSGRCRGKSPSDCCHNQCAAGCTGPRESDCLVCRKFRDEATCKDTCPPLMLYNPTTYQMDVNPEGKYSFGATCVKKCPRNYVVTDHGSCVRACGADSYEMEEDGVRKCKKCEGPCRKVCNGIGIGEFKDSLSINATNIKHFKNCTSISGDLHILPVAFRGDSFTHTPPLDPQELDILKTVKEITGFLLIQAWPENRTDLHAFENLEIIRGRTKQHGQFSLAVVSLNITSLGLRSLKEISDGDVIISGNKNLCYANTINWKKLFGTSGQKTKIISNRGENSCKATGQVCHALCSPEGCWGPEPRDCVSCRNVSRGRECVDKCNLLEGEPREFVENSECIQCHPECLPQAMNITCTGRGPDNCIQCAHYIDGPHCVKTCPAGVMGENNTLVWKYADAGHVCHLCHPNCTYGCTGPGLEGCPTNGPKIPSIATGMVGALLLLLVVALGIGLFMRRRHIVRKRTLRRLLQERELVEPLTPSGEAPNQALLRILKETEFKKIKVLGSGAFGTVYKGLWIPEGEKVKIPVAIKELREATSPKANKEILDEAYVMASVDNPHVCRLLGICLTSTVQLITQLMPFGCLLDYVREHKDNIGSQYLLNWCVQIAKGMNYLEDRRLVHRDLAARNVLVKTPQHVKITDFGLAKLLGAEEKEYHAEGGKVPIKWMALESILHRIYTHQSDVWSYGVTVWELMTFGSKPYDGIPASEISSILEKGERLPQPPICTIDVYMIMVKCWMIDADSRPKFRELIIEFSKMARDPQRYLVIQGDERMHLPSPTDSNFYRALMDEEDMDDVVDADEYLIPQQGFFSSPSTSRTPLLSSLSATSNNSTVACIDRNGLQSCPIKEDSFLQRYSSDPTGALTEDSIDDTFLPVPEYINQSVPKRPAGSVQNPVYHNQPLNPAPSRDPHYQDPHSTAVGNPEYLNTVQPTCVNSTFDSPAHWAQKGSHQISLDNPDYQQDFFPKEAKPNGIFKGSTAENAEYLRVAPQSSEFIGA

For `CSc1cccnc1N1CCN(Cc2nc3ccccc3[nH]2)CC1` [A-769], the residual activity [1] was 70%, the residual activity [2] was 100% and the residual activity [3] was 82%. For the same molecule, the residual activity [4] was 100%, the residual activity [5] was 94% and the residual activity [6] was 68%. For the same molecule, the residual activity [7] was 100%, the residual activity [8] was 100% and the residual activity [9] was 100%. The residual activity [10] was 100%, the residual activity [11] was 97% and the residual activity [12] was 94%. The residual activity [13] was 100%, the residual activity [14] was 98% and the residual activity [15] was 75%.
For `c1ccc(N2CCN(Cc3nc4ccccc4[nH]3)CC2)nc1` [ABT-724], the Ki (D(4) dopamine receptor) was 57.5 nM (active), the inhibition [16] was 17% and the inhibition [17] was 17%. The inhibition [18] was 15%, the inhibition [19] was 26% and the inhibition [20] was 51%. For the same molecule, the inhibition [21] was 73%, the inhibition [22] was 21% and the inhibition at 10 µM [23] was < 10% (not active). The residual activity [1] was 80%, the residual activity [2] was 100% and the residual activity [4] was 66%. It also gave a residual activity [5] of 97%, a residual activity [6] of 100% and a residual activity [7] of 100%. For the same molecule, the residual activity [8] was 100%, the residual activity [9] was 65% and the residual activity [10] was 97%. It also gave a residual activity [11] of 100%, a residual activity [12] of 100% and a residual activity [13] of 100%. For the same molecule, the residual activity [14] was 100%, the residual activity [15] was 100% and the inhibition [24] was under 10%. For the same molecule, the inhibition [25] was under 10%, the inhibition [26] was under 10% and the inhibition [27] was under 10%. For the same molecule, the inhibition [28] was under 10%, the inhibition [29] was under 10% and the inhibition [30] was under 10%. It also gave an inhibition [31] of under 10%, an inhibition [32] of under 10% and an inhibition [33] of under 10%. For the same molecule, the inhibition [34] was under 10%, the inhibition [35] was under 10% and the inhibition [36] was under 10%. It also gave an inhibition [37] of 51%.

Source: ChEMBL document CHEMBL4507260 (2021)
